Reference: US20110105494A1, “HETEROARYL SUBSTITUTED ARYLINDENOPYRIMIDINES AND THEIR USE AS HIGHLY SELECTIVE ADENOSINE A2A RECEPTOR ANTAGONISTS” (priority 2009, published 2011)

Legend:
[1] = target: T1, human adenosine A1 receptor (Homo sapiens, UniProt P30542); test: Adenosine A1 Receptor Functional Assay (A1GAL2); type: cell-based; conditions: CHO-K1 cells overexpressing human A1 receptor, cAMP inducible beta-galactosidase reporter; antagonist mode vs 4 nM r-PIA/1 uM Forskolin challenge
T1 construct: expressed in transfected cells; host or cells: CHO-K1 cells with cAMP inducible beta-galactosidase reporter gene
T1 sequence (P30542 1-326): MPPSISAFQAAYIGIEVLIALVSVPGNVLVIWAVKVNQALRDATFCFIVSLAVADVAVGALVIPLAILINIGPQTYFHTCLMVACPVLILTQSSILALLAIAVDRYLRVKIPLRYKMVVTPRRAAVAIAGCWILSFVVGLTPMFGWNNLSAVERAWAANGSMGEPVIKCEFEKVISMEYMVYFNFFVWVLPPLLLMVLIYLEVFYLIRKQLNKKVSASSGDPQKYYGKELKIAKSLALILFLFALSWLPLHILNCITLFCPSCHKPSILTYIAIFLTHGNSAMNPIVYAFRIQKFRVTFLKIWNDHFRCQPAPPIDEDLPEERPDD
Procedure: Adenosine A1 Receptor Functional Assay (A1GAL2)
To initiate the functional assay, cryopreserved CHO—K1 cells overexpressing the human adenosine A1 receptor and containing a cAMP inducible beta-galactosidase reporter gene were thawed, centrifuged, DMSO containing media removed, and then seeded with fresh culture media into clear 384-well tissue culture treated plates (BD #353961) at a concentration of 10K cells/well. Prior to assay, these plates were cultured for two days at 37° C., 5% CO2, 90% Rh. On the day of the functional assay, culture media was removed and replaced with 45 μL assay medium (Hams/F-12 Modified (Mediatech # 10-080CV) supplemented w/0.1% BSA). Test compounds were diluted and 11 point curves created at a 1000× concentration in 100% DMSO. Immediately after addition of assay media to the cell plates, […] of the appropriate test compound antagonist or agonist control curves were added to cell plates using a Cartesian Hummingbird. Compound curves were allowed to incubate at room temperature on cell plates for approximately 15 minutes before addition of a 4 nM r-PIA (Sigma P4532)/1 uM Forskolin (Sigma F3917) agonist challenge (5 μL volume). A control curve of r-PIA in 1 uM Forskolin, a DMSO/Media control, and a single dose of Forskolin were also included on each plate. After additions, cell plates were allowed to incubate at 37° C., 5% CO2, 90% Rh for 5.5-6 hours. After incubation, media was removed, and cell plates were washed 1×50 μL with DPBS w/o Ca & Mg (Mediatech 21-031-CV). Into dry wells, 20 μL of 1× Reporter Lysis Buffer (Promega E3971 (diluted in dH2O from 5× stock)) was added to each well and plates frozen at −20° C. overnight. For β-galactosidase enzyme colorimetric assay, plates were thawed out at room temperature and 20 μL 2× assay buffer (Promega) was added to each well. Color was allowed to develop at 37° C., 5% CO2, 90% Rh for 1-1.5 h or until reasonable signal appeared. The colorimetric reaction was stopped with the addition of 60 μL/well 1M sodium carbonate. Plates were counted at 405 nm on a SpectraMax Microplate Reader (Molecular Devices). Data was analyzed in Microsoft Excel and IC/EC50 curves were fit using a standardized macro.

[2] = target: T2, human adenosine A2A receptor (Homo sapiens, UniProt P29274); test: Adenosine A2A Receptor Functional Assay (A2AGAL2); type: cell-based; conditions: for IC50: CHO-K1 cells overexpressing human A2A receptor, cAMP inducible beta-galactosidase reporter, antagonist mode vs 15 nM NECA challenge; for A1/A2A: selectivity ratio of A1Gal2 value to A2AGal2 value
T2 construct: expressed in transfected cells; host or cells: CHO-K1 cells with cAMP inducible beta-galactosidase reporter gene
T2 sequence (P29274 whole entry): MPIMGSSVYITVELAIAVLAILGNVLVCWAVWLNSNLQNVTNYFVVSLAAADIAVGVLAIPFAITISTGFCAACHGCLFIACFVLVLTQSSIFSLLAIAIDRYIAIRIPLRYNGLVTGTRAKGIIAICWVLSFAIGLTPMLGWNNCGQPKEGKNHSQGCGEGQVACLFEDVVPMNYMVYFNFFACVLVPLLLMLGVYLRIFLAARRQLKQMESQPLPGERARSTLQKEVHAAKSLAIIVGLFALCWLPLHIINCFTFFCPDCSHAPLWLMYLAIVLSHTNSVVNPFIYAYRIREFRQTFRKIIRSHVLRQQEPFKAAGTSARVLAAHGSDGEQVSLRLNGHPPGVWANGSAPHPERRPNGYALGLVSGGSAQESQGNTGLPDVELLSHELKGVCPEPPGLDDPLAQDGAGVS
Procedure: Adenosine A2A Receptor Functional Assay (A2AGAL2)
To initiate the functional assay, cryopreserved CHO—K1 cells overexpressing the human adenosine A2A receptor and containing a cAMP inducible beta-galactosidase reporter gene were thawed, centrifuged, DMSO containing media removed, and then seeded with fresh culture media into clear 384-well tissue culture treated plates (BD #353961) at a concentration of 10K cells/well. Prior to assay, these plates were cultured for two days at 37° C., 5% CO2, 90% Rh. On the day of the functional assay, culture media was removed and replaced with 45 μL assay medium (Hams/F-12 Modified (Mediatech #10-080CV) supplemented w/0.1% BSA). Test compounds were diluted and 11 point curves created at a 1000× concentration in 100% DMSO. Immediately after addition of assay media to the cell plates, 50 nL of the appropriate test compound antagonist or agonist control curves were added to cell plates using a Cartesian Hummingbird. Compound curves were allowed to incubate at room temperature on cell plates for approximately 15 minutes before addition of a 15 nM NECA (Sigma E2387) agonist challenge (5 μL volume). A control curve of NECA, a DMSO/Media control, and a single dose of Forskolin (Sigma F3917) were also included on each plate. After additions, cell plates were allowed to incubate at 37° C., 5% CO2, 90% Rh for 5.5-6 hours. After incubation, media were removed, and cell plates were washed 1×50 μL with DPBS w/o Ca & Mg (Mediatech 21-031-CV). Into dry wells, 20 μL of 1× Reporter Lysis Buffer (Promega E3971 (diluted in dH2O from 5× stock)) was added to each well and plates frozen at −20° C. overnight. For β-galactosidase enzyme colorimetric assay, plates were thawed out at room temperature and 20 μL 2× assay buffer (Promega) was added to each well. Color was allowed to develop at 37° C., 5% CO2, 90% Rh for 1-1.5 h or until reasonable signal appeared. The colorimetric reaction was stopped with the addition of 60 μL/well 1M sodium carbonate. Plates were counted at 405 nm on a SpectraMax Microplate Reader (Molecular Devices). Data was analyzed in Microsoft Excel and IC/EC50 curves were fit using a standardized macro.

SMILES	IC50 [1]	IC50 [2]	A1/A2A [2]
CC(C)CCN1CCN(c2ccc(-c3cccc4c3-c3nc(N)nc(-c5ccc(F)cc5)c3C4=O)cn2)CC1 [Example 11, 2-Amino-4-(4-fluoro-phenyl)-9-{6-[4-(3-methyl-butyl)-piperazin-1-yl]-pyridin-3-yl}-indeno[1,2-d]pyrimidin-5-one]	1000 nM	18 nM	55.5556
Nc1nc(-c2ccc(F)cc2)c2c(n1)-c1c(cccc1-c1ccc(N3CCN(CC4CC4)CC3)nc1)C2=O [Example 9, 2-Amino-9-[6-(4-cyclopropylmethyl-piperazin-1-yl)-pyridin-3-yl]-4-(4-fluoro-phenyl)-indeno[1,2-d]pyrimidin-5-one]	580 nM	7.9 nM	73.4177
Nc1nc(-c2ccccc2)c2c(n1)-c1c(cccc1-c1ccc(N3CCN(Cc4ccccc4)CC3)nc1)C2=O [Example 8, 2-Amino-9-[6-(4-benzyl-piperazin-1-yl)-pyridin-3-yl]-4-phenyl-indeno [1,2-d]pyrimidin-5-one]	560 nM	5.6 nM	100
Cc1nc(-c2ccccc2)sc1-c1cccc2c1-c1nc(N)nc(-c3ccc(F)cc3)c1C2=O [Example 5, 2-Amino-4-(4-fluoro-phenyl)-9-(4-methyl-2-phenyl-thiazol-5-yl)-indeno[1,2-d]pyrimidin-5-one]	920 nM	17 nM	–
Cc1nc(-c2ccc(C(F)(F)F)cc2)sc1-c1cccc2c1-c1nc(N)nc(-c3ccc(F)cc3)c1C2=O [Example 3, 2-Amino-4-(4-fluoro-phenyl)-9-[4-methyl-2-(4-trifluoromethyl-phenyl)-thiazol-5-yl]-indeno[1,2-d]pyrimidin-5-one]	5400 nM	50 nM	108

Results, then the molecule that gave them:

IC50 [1]	IC50 [2]	A1/A2A [2]	SMILES
870 nM	17 nM	51.1765	Cc1c(-c2cccc3c2-c2nc(N)nc(-c4ccccc4)c2C3=O)cnn1-c1ccccc1 [Example 7, 2-Amino-9-(5-methyl-1-phenyl-1H-pyrazol-4-yl)-4-phenyl-indeno [1,2-d]pyrimidin-5-one]
2030 nM	12.7 nM	160.288	Nc1nc(-c2ccc(F)cc2)c2c(n1)-c1c(cccc1-c1cnn(CCN3CCOCC3)c1)C2=O [Example 2, 2-Amino-4-(4-fluoro-phenyl)-9-[1-(2-morpholin-4-yl-ethyl)-1H-pyrazol-4-yl]-indeno[1,2-d]pyrimidin-5-one]
120 nM	1.3 nM	92.3077	N#Cc1ccc(-c2cccc3c2-c2nc(N)nc(-c4ccccc4)c2C3=O)s1 [Example 4, 5-(2-Amino-5-oxo-4-phenyl-5H-indeno[1,2-d]pyrimidin-9-yl)-thiophene-2-carbonitrile]
7500 nM	7.1 nM	1056.34	Cc1nc(-c2ccccc2)sc1-c1cccc2c1-c1nc(N)nc(-c3ccccc3)c1C2=O [Example 1, 2-Amino-9-(4-methyl-2-phenyl-thiazol-5-yl)-4-phenyl-indeno[1,2-d]pyrimidin-5-one]
190 nM	3 nM	63.3333	Cc1cc(-c2cccc3c2-c2nc(N)nc(-c4ccccc4)c2C3=O)cnc1N1CCN(C)CC1 [Example 10, 2-Amino-9-[5-methyl-6-(4-methyl-piperazin-1-yl)-pyridin-3-yl]-4-phenyl-indeno [1,2-d]pyrimidin-5-one]
225 nM	4.2 nM	53.6847	CCOC(=O)Cn1cc(-c2cccc3c2-c2nc(N)nc(-c4ccc(F)cc4)c2C3=O)cn1 [Example 6, {4-[2-Amino-4-(4-fluoro-phenyl)-5-oxo-5H-indeno[1,2-d]pyrimidin-9-yl]-pyrazol-1-yl}-acetic acid ethyl ester]
